Laboratory results as given in PubChem BioAssay AID179 (DTP/NCI, 2004).
The source made the active and inactive calls.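 The calls were made as follows: active = compounds giving half or more protection of infected cells from virus-caused growth loss, again on retest; inactive = the rest.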 Where a SMILES comes first, the peptide text is derived from it.

System: CEM cells HIV-1 protection, formazan growth assay
Test: NCI AIDS Antiviral Assay
Details: for IC50: measured here: growth of uninfected CEM cells
How it was run: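 Screen of anti-HIV-1 activity in human CEM cells using a formazan-based growth measurement at five drug concentrations. Hits with 50% or greater protection were repeated, and confirmation required reproducible complete protection.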

With CCC12CCCN(Cc3ccccc3)C1c1c([nH]c3ccccc13)C(C(=O)OC)C2 (stereo not given) the EC50 was greater than 30.9 µM and the IC50 was greater than 30.9 µM.
C=C1C(=O)OC2C1CC1OC2C(C)CCC/C(C)=C\CCC1(C)O (stereo not given) was tested, and the EC50 was greater than 525 µM and the IC50 was 17 µM.
In the case of CN=C1Nc2ccccc2C(=O)N2CSCC12 (stereo not given), the EC50 is reported as greater than 200 µM and the IC50 is reported as greater than 200 µM.
COc1ccc(OC)c2c3c(ccc12)C1(CCc2c(C)cccc21)OC3=O (stereo not given) showed an EC50 greater than 55 µM and an IC50 of 8.13 µM.
NCCN1C(=O)c2ccccc2C1(O)c1ccccc1 (stereo not given) showed an EC50 greater than 200 µM and an IC50 greater than 200 µM.
COC1/C=C\C=C(/C)C(=O)Nc2cc3nc4ccc(Br)cc4oc-3c(c2=O)CC(C)CC(OC)C(O)C(C)/C=C(\C)C1OC(N)=O (stereo not given) was tested, and the EC50 was greater than 0.2 µM and the IC50 was 0.0115 µM.
In the case of CC(C)CC12CC3CCC(CNC1=O)C32C (stereo not given), the outcome is reported as “inactive”.
Work on N#Cc1c(C[n+]2ccccc2)c2ccccc2oc1=O yielded an EC50 of 617 µM and an IC50 of 646 µM.
With C[Si](C)(C)C#CCOC=C1CC1 the outcome was “inactive”.
COc1cc(N)c2c(c1)SCC(=O)N2 showed an EC50 greater than 200 µM and an IC50 of 148 µM.
COc1cc2nc(CCc3nc4cc(OC)c(OC)cc4[nH]3)[nH]c2cc1OC gave an EC50 greater than 17 µM and an IC50 of 12.3 µM.
COC(=O)c1oc(-c2ccccc2)c(-c2ccccc2)c1C(=O)OC gave an EC50 greater than 200 µM and an IC50 of 74.1 µM.
COC(=O)CCCC=C(c1cc(Cl)c(OC)c(C2=NC(C)(C)CO2)c1)c1cc(Cl)c(OC)c(C2=NC(C)(C)CO2)c1 was tested, and the outcome was “inactive”.
In the case of O=C(O)C1C(c2ccccc2)C=CC(c2ccccc2)C1C(=O)O (stereo not given), the outcome is reported as “inactive”.
CCn1c2ccccc2c2cc(N=C3C(=O)N(C)c4ccccc43)ccc21 gave an EC50 greater than 200 µM and an IC50 of 10.7 µM.
In the case of CC1CCC(O)C(C(O)CC2CC(=O)NC(=O)C2)C1 (stereo not given), the EC50 is reported as greater than 200 µM and the IC50 is reported as greater than 200 µM.
CC(NC(=O)C(N)CC(=O)O)NC(=O)N1CCOCC1 (stereo not given) was tested, and the EC50 was greater than 200 µM and the IC50 was greater than 200 µM.
Work on CCOC(=O)[C@@H]1CCN2CN(c3ccc(OC)cc3)N=C(c3ccccc3)[C@@]12c1ccccc1 yielded an EC50 greater than 200 µM and an IC50 of 18.2 µM.
O=C(CN1CCCCC1)c1ccc2c(c1)Sc1ccccc1O2 was tested, and the EC50 was greater than 200 µM and the IC50 was 3.47 µM.
Work on Cn1c(-c2csc(-c3ccc(Cl)cc3)n2)n[nH]c1=S yielded an EC50 greater than 200 µM and an IC50 greater than 200 µM.
In the case of CCC(=O)C[P+](c1ccccc1)(c1ccccc1)c1ccccc1, the EC50 is reported as greater than 200 µM and the IC50 is reported as 69.2 µM.
Compound c1ccc([P+](Cc2ccc(C[P+](c3ccccc3)(c3ccccc3)c3ccccc3)cc2)(c2ccccc2)c2ccccc2)cc1 has an EC50 of 17.4 µM and an IC50 of 38 µM.
C=c1c2ccccc2oc2nc3[nH]c(N)c(C#N)c(N)c3c(=N)c12 gave an EC50 greater than 200 µM and an IC50 of 7.24 µM.
For CN1C(=O)C(O)CC1c1cccc(F)c1 (stereo not given), the EC50 was greater than 200 µM and the IC50 was greater than 200 µM.
Nc1nccc2c([N+](=O)[O-])cccc12 was tested, and the outcome was “inactive”.
In the case of CCN(CC)C(=O)CCCCCCCCC1CO1 (stereo not given), the EC50 is reported as greater than 200 µM and the IC50 is reported as 115 µM.
Cc1cc2ccccc2n1S(=O)(=O)c1ccccc1 was tested, and the EC50 was greater than 95.5 µM and the IC50 was greater than 95.5 µM.
CC1=CC(N2C(=O)C(C)=CC2O)NC1=O (stereo not given) was tested, and the outcome was “inactive”.
COc1cc(C2c3cc4c(cc3C(=O)C3CCC(=O)N32)OCO4)cc(OC)c1O (stereo not given) gave an EC50 greater than 50.1 µM and an IC50 of 27.5 µM.
In the case of C[n+]1c(-c2ccc(/C=N\NC(=O)N/N=C/c3ccc(-c4cn5ccccc5[n+]4C)cc3)cc2)cn2ccccc21, the EC50 is reported as 36.3 µM and the IC50 is reported as 47.9 µM.
Oc1ccc(-c2c3ccccc3c(-c3ccc(O)cc3)c3ccccc23)cc1 showed an EC50 greater than 2.75 µM and an IC50 greater than 2.75 µM.
With C/C(=N/NC(=O)CC(=O)N(C(=O)c1ccccc1Cl)c1ccc(C)cc1)c1cc2ccccc2oc1=O the EC50 was greater than 10 µM and the IC50 was greater than 10 µM.
Cc1c(C)c2c(c(N)c1C#N)C(=O)N(Nc1ccccc1)C2=O was tested, and the EC50 was greater than 200 µM and the IC50 was 79.4 µM.
CSc1sc(=S)sc1C(=O)N(C)c1ccccc1 gave an EC50 greater than 200 µM and an IC50 greater than 200 µM.
For CC(=O)NCCc1c[nH]c2ccc(Cl)cc12, the EC50 was greater than 200 µM and the IC50 was 195 µM.
Cc1cc(NS(=O)(=O)c2ccc(NC(=O)c3cccc4c(NNc5ccc(S(N)(=O)=O)cc5)c5ccccc5nc34)cc2)no1 was tested, and the EC50 was greater than 200 µM and the IC50 was 37.2 µM.
With CCOC(=O)c1c(-c2ccc(OC)cc2)c(C#N)c(=S)n(C2OC(CO)C(O)C(O)C2O)c1-c1ccccc1 (stereo not given) the EC50 was greater than 200 µM and the IC50 was 34.7 µM.
In the case of CCOP(C)(=O)C(Nc1ccc(F)cc1)c1ccc(F)cc1 (stereo not given), the EC50 is reported as greater than 200 µM and the IC50 is reported as 166 µM.
COc1ccc(-c2cc(=O)c3c(O)c(OC)c(OC)c(OC)c3o2)cc1 showed an EC50 greater than 200 µM and an IC50 of 55 µM.
Work on CC(C)CC(NC(=O)C(Cc1cnc[nH]1)NC(=O)C(CC(N)=O)NC(=O)C(NC(=O)C(CO)NC(=O)C(Cc1ccc(O)cc1)NC(=O)C(CO)NC(=O)C(C)NC(=O)C(N)CCCCN)C(C)O)C(=O)O (stereo not given) (H-KASYSTNHL-OH; configuration not given here) yielded an EC50 greater than 61.7 µM and an IC50 greater than 61.7 µM.
Cc1ccc(S(=O)(=O)N/N=C(/c2nc3ccc([N+](=O)[O-])cc3[nH]c2=O)C(O)c2ccc(C(O)/C(=N\NS(=O)(=O)c3ccc(C)cc3)c3nc4ccc([N+](=O)[O-])cc4[nH]c3=O)cc2)cc1 (stereo not given) gave an EC50 greater than 39.8 µM and an IC50 greater than 39.8 µM.
O=C(CCC(=O)Nc1cccc(C(F)(F)F)c1)CC(=O)c1ccc2ccccc2c1 was tested, and the outcome was “inactive”.
With [B]C(=O)NC(CC(C)C)C(=O)NC1c2ccsc2C(=O)C1O (stereo not given) (tested in a mixture with another compound) the EC50 was greater than 200 µM and the IC50 was greater than 200 µM.
With Cc1ccnc(NC(=O)Nc2cc(F)ccc2F)c1 the EC50 was greater than 200 µM and the IC50 was greater than 200 µM.
In the case of CCOC(=O)c1[nH]n(-c2ccccc2)c(=O)c1/C=N/C(=S)Nc1ccccc1, the EC50 is reported as greater than 200 µM and the IC50 is reported as 51.3 µM.
Cc1c2ccnc(C#N)c2c(C)c2c1[nH]c1ccccc12 was tested, and the outcome was “inactive”.
For C=C1C(=O)[C@]23C[C@H]1CC[C@H]2[C@@]12CO[C@@H](O)[C@@H]1C(C)(C)[C@@H](O)C[C@@H]2OC3=O, the EC50 was greater than 692 µM and the IC50 was 26.3 µM.
CCC(CCCC[C@H]1CC[C@@H]2CC(=O)C[C@H]12)OC (stereo not given in full) gave an EC50 greater than 200 µM and an IC50 greater than 200 µM.
With CCN(CC)CC(=O)Nc1ccc(Cl)cc1Cc1ccccc1 the EC50 was greater than 200 µM and the IC50 was 91.2 µM.
Compound O[C@]12C=C[C@H](CCCC1)O2 has an EC50 greater than 200 µM and an IC50 of 50.1 µM.
With COC(=O)/C=C(\C=C/C(=O)O)C(=O)O the EC50 was greater than 1260 µM and the IC50 was 251 µM.
Work on O=C(O)CCN(CCCN(CCC(=O)O)CCC(=O)O)CCC(=O)O yielded an EC50 greater than 575 µM and an IC50 of 8.13 µM.
Compound CCOc1ccc(/C=C2/NC(=S)N(CN3CCCCC3)C2=O)cc1 has an EC50 greater than 200 µM and an IC50 of 72.4 µM.
Compound Cn1c(N)c(N)c(=O)[nH]c1=O has an EC50 greater than 200 µM and an IC50 of 162 µM.
Work on CCc1c(Cc2cc(C)cc(C)c2)n(COCCSc2ccccc2)c(=O)[nH]c1=O yielded an EC50 of 0.49 µM and an IC50 of 15.5 µM.
N#CC(C#N)=C(C(C#N)C#N)C(C#N)C#N was tested, and the outcome was “inactive”.
For CCOc1ccccc1NC(=O)/C(=N\NC(C)(C)C)C1C(=O)Nc2ccccc2S1=O (stereo not given), the EC50 was greater than 112 µM and the IC50 was 17.8 µM.
In the case of COC(=O)[C@@H]1CN(C(=O)CCc2ccccc2)C(=O)N1, the EC50 is reported as greater than 200 µM and the IC50 is reported as greater than 200 µM.
For O=C1Nc2ccccc2C1(O)Cc1ccccn1 (stereo not given), the EC50 was greater than 1050 µM and the IC50 was greater than 1050 µM.
O=C(/C=C/c1cccnc1)c1ccccc1 was tested, and the EC50 was greater than 123 µM and the IC50 was 7.59 µM.
In the case of O=S(=O)(C1=CC(S(=O)(=O)c2ccccc2)CN(Cc2ccccc2)C1c1ccccc1)c1ccccc1 (stereo not given), the outcome is reported as “inactive”.
With CCCCC(C(=O)O)C1=CCCCC1 (stereo not given) the outcome was “inactive”.
With S=C(c1c[nH]c2ccccc12)N1CCN(Cc2ccccc2)CC1 the EC50 was greater than 200 µM and the IC50 was 37.2 µM.
